Legend:
CSF glycine [1] = test: Proof of clinical mechanism trial in healthy volunteers; format: in vivo, human; conditions: 10 mg dose
[2] = test system: patients with schizophrenia; test: Phase II CIAS trial: cognition by MCCB, compound I add-on to antipsychotics vs placebo; format: in vivo, human; design: Change from baseline in MCCB overall composite score at Week 12, adjusted mean / Change from baseline in MCCB overall composite score at Week 12, comparison vs. placebo, adjusted mean: scale not given here; conditions: for Change from baseline in MCCB overall composite score at Week 12, adjusted mean: 12 weeks; for Change from baseline in MCCB overall composite score at Week 12, adjusted mean / Change from baseline in MCCB overall composite score at Week 12, comparison vs. placebo, adjusted mean: MMRM; for Change from baseline in MCCB overall composite score at Week 12, adjusted mean / Change from baseline in MCCB overall composite score at Week 12, comparison vs. placebo, adjusted mean / Proportion of responders, change from baseline in MCCB overall composite score at Week 12 / Responders, comparison vs. placebo, odds ratio: FAS; for Responders, comparison vs. placebo, odds ratio: logistic regression
Source text: This trial was designed to investigate whether compound I as an add-on therapy to antipsychotics (except clozapine) can improve cognitive symptoms in patients with schizophrenia.
The primary endpoint was cognition assessed using the Measurement and Treatment Research to Improve Cognition in Schizophrenia (MATRICS) consensus cognitive battery (MCCB).
• 1) Men or women who are 18-50 years (inclusive) of age at time of consent with established schizophrenia (as per DSM-5) with the following clinical features: • Outpatient, with no hospitalization for worsening of schizophrenia within 3 months (hospitalization for social management and/or day hospital programs within this time are acceptable) prior to randomization • Medically stable over the prior 4 weeks and psychiatrically stable without symptom exacerbation within 3 months prior to randomization • patients who have no more than a “moderate severe” rating on the Positive and Negative Symptom Scale (PANSS) positive items P1, P3-P7 (item score≤5) and no more than a “moderate” rating on the PANSS positive item P2 (item score≤4) • 2) Current antipsychotic and concomitant psychotropic medications as assessed at Visit 1 must meet the criteria below: • a. patients may have up to 2 antipsychotics (typical and/or atypical) • b. patients must be maintained on current typical and/or atypical antipsychotics other than Clozapine and on current dose for at least 4 weeks prior to randomization and/or maintained on current long acting injectable antipsychotics and current dose for at least 3 months prior to randomization • c. patients must be maintained on current concomitant psychotropic medications, anticholinergics, antiepileptics and/or lithium for at least 3 months prior to randomization and on current dose for at least 4 weeks prior to randomization.
Patients eligible for the trial were randomly assigned, in a 1:1:1:1:2 ratio to either • 2 mg compound I • 5 mg compound I • 10 mg compound I • 25 mg compound I • Placebo
An MCPMod approach combined with MMRM was used to establish the proof of concept in this trial.
The null hypothesis was that there was a flat dose-response pattern across placebo and any dose of compound I within the tested dose range on the mean change in the MCCB overall composite score from baseline to Week 12. The alternative hypothesis was that there was a non-flat dose-response pattern indicating a benefit of compound I versus placebo.
(§1) Patients in the FAS were analysed according to the ITT principle, i.e. according to their randomised trial medication. The FAS was used for analyses of efficacy.
The primary endpoint of this trial was the change from baseline in cognitive function as measured by the MCCB overall composite score after 12 weeks of treatment. The primary efficacy analysis was based on the full analysis set (FAS).
Model includes fixed, categorical factors of planned treatment, analysis visit, and planned treatment by analysis visit interaction, as well as the continuous fixed covariate of baseline value and baseline value by analysis visit interaction. Subject is treated as random effect. Unstructured covariance structure was used to fit the mixed model. Kenward-Roger was used to model degrees of freedom.

[3] = test system: patients with mild to moderate dementia due to AD; test: AD trial: cognition by ADAS-Cog11, compound I vs placebo; format: in vivo, human; conditions: for Change from baseline in ADAS-Cog11 total score at Week 12, adjusted mean / Change from baseline in ADAS-Cog11 total score at Week 12, comparison vs. placebo, adjusted mean: MMRM, FAS (OC)
Source text: This trial was designed to investigate whether compound I either alone as monotherapy or as an add-on therapy to acetylcholinesterase inhibitors can improve cognitive symptoms in patients with AD.
The primary endpoint was change from baseline in ADAS-Cog11 (Alzheimer's Disease Assessment Scale-cognitive subscale) total score after 12-week treatment. (Lower values in the ADAS-Cog11 score indicate better cognitive function.)
• 1) Diagnosis of mild-to-moderate Alzheimer's Disease Dementia according to the recommendations from the National Institute on Aging-Alzheimer's Association workgroups on diagnostic guidelines for Alzheimer's disease. • 2) Male or female patients at least 55 years of age. Patients older than 85 years could be included based on an acceptable general health status, (e.g. concomitant diseases, physical capability to follow the required study procedures (visits etc.)) at discretion of the investigator • 3) MMSE score of 15-26 at screening (Visit 1). • 4) Concomitant use of AChEIs allowed but not required. Key Exclusion Criteria • 1) Dementia secondary to disorders other than Alzheimer's Disease Dementia. • 2) Any central nervous system disease other than AD which according to the investigator may be associated with worsening of cognition. • 3) Any suicidal behaviour in the past 2 years (i.e. actual attempt, interrupted attempt, aborted attempt, or preparatory acts or behaviour). • 4) Any suicidal ideation of type 4 or 5 in the C-SSRS in the past 3 months (i.e. active suicidal thought with intent but without specific plan, or active suicidal thought with plan and intent). • 5) Previous participation in investigational drug studies of dementia of Alzheimer's Type within three months prior to screening. Patients having received any active treatment in studies targeting disease modification of AD are excluded.
Patients eligible for the trial were randomly assigned, in a 1:1:1:1:1 ratio to either • 2 mg compound I • 5 mg compound I • 10 mg compound I • 25 mg compound I • Placebo
An MCPMod approach combined with MMRM was used to test for the proof of concept in this trial.
as §1
The primary endpoint was the change from baseline in ADAS-Cog11 total score after 12 weeks of treatment. The analyses for PoC and dose-finding were done using the MCPmod technique for MMRM.
Model includes fixed, categorical factors of planned treatment (p-value=0.3425), analysis visit (p-value=0.7890), baseline MMSE stratification factor (≥20, <20) (p-value≤0.0001), and planned treatment by analysis visit interaction (p-value=0.7534), as well as the continuous fixed covariate of baseline value (p-value≤0.0001) and baseline value by analysis visit interaction (p-value=0.1185).

CSF glycine [4] = test: Animal cognition tasks with CSF glycine and CSF compound levels; format: in vivo; conditions: animals
[5] = as above; format: in vivo; conditions: animals, efficacious doses
[6] = test system: patients with schizophrenia; test: Phase II CIAS trial: safety (AEs, laboratory tests, PANSS, C-SSRS)
Procedure: This was a 12-week, multi-centre, multi-national, randomised, double-blind, double-dummy, placebo-controlled, parallel-group trial in patients with clinically stable schizophrenia.
(§2) The TS included all patients who were randomised and were treated with ≥1 dose of trial medication. Patients in the TS were analysed according to the actual trial medication they received at randomisation. The TS was used for analyses of safety, demographics, and baseline characteristics.
Safety was assessed based on the frequency of AEs, recording of vital signs, ECG measurements, standard laboratory tests, physical examination, neurological examination, as well as PANSS and C-SSRS questionnaires.

[7] = test system: patients with mild to moderate dementia due to AD; test: AD trial: safety (AEs, laboratory tests); format: in vivo, human; conditions: 25 mg treatment group
Procedure: This was a 12-week, multi-centre, multi-national, randomised, double-blind, double-dummy, placebo-controlled, parallel-group trial in patients with mild to moderate dementia due to AD.
as §2
Safety assessments included the frequency of AEs, recording of vital signs, ECG measurements, standard laboratory tests, physical examination, and C-SSRS questionnaires.

For `C[C@@H](Oc1ccc(S(C)(=O)=O)cc1C(=O)N1C[C@@H]2C[C@]2(c2cc(C(F)(F)F)on2)C1)C(F)(F)F` [compound I, [5-(methylsulfonyl)-2-{[(2R)-1,1,1-trifluoropropan-2-yl]oxy}phenyl] {(1R,5R)-1-[5-(trifluoromethyl)-1,2-oxazol-3-yl]-3-azabicyclo[3.1.0]hex-3-yl}methanone], the “CSF glycine increase and CSF level criteria” value (CSF glycine [1]) was “these criteria were met by the 10 mg dose”, the “Effect on cognition (dose considerations, Phase II trial)” value ([2]; 2 mg) was “ineffective” and the “Change from baseline in MCCB overall composite score at Week 12, adjusted mean” value ([2]; 2 mg once daily oral) was 1.784. For the same compound, the “Change from baseline in MCCB overall composite score at Week 12, comparison vs. placebo, adjusted mean” value ([2]; 2 mg once daily) was 0.280, the “Effect on cognition (dose considerations, Phase II trial)” value ([2]; 5 mg) was “numerically improved cognition in Asian subpopulation” and the “Change from baseline in MCCB overall composite score at Week 12, adjusted mean” value ([2]; 5 mg once daily oral) was 1.641. For the same compound, the “Change from baseline in MCCB overall composite score at Week 12, comparison vs. placebo, adjusted mean” value ([2]; 5 mg once daily) was 0.137, the “Effect on cognition (dose considerations, Phase II trial), primary endpoint” value ([2]; 10 mg) was “separated best from placebo” and the “Change from baseline in MCCB neurocognitive composite score at Week 12” value ([2]; 10 mg and 25 mg treatment groups compared with placebo) was “A larger change from baseline was observed”. For the same compound, the “Change from baseline in MCCB overall composite score at Week 12, adjusted mean” value ([2]; 10 mg once daily oral) was 3.486, the “Change from baseline in MCCB overall composite score at Week 12, comparison vs. placebo, adjusted mean” value ([2]; 10 mg once daily) was 1.982 and the “Effect on cognition (dose considerations, Phase II trial)” value ([2]; 25 mg) was “efficacy less consistent across analyses than the 10 mg dose”. For the same compound, the “Change from baseline in MCCB overall composite score at Week 12, adjusted mean” value ([2]; 25 mg once daily oral) was 3.234, the “Change from baseline in MCCB overall composite score at Week 12, comparison vs. placebo, adjusted mean” value ([2]; 25 mg once daily) was 1.730 and the “Cognitive performance compared to placebo, phase 2 clinical trial” value ([2]; certain doses, patients having schizophrenia) was “improves cognitive performance”. The “Dose-response for change from baseline at Week 12 in MCCB overall composite T-score” value ([2]; doses of 2 to 25 mg) was “non-flat dose-response curve”, the “Proportion of responders, change from baseline in MCCB overall composite score at Week 12” value (from here on “Proportion of responders, change”) ([2]; responder ≥3, 2 mg) was 46.3% and the “Responders, comparison vs. placebo, odds ratio” value (“Responders … odds ratio” for short) ([2]; responder ≥3, 2 mg) was 1.184. The “Proportion of responders, change” value ([2]; responder ≥3, 5 mg) was 42.3%, the “Responders … odds ratio” value ([2]; responder ≥3, 5 mg) was 1.006 and the “Proportion of responders, change” value ([2]; responder ≥3, 10 mg) was 61.5%. For the same compound, the “Responders … odds ratio” value ([2]; responder ≥3, 10 mg) was 2.200, the “Proportion of responders, change” value ([2]; responder ≥3, 25 mg) was 47.4% and the “Responders … odds ratio” value ([2]; responder ≥3, 25 mg) was 1.241. The “Proportion of responders, change” value ([2]; responder ≥4, 2 mg) was 40.3%, the “Responders … odds ratio” value ([2]; responder ≥4, 2 mg) was 1.298 and the “Proportion of responders, change” value ([2]; responder ≥4, 5 mg) was 38.0%. For the same compound, the “Responders … odds ratio” value ([2]; responder ≥4, 5 mg) was 1.180, the “Proportion of responders, change” value ([2]; responder ≥4, 10 mg) was 52.6% and the “Responders … odds ratio” value ([2]; responder ≥4, 10 mg) was 2.131. The “Proportion of responders, change” value ([2]; responder ≥4, 25 mg) was 41.0%, the “Responders … odds ratio” value ([2]; responder ≥4, 25 mg) was 1.338 and the “Proportion of responders, change” value ([2]; responder ≥5, 2 mg) was 35.8%. The “Responders … odds ratio” value ([2]; responder ≥5, 2 mg) was 1.370, the “Proportion of responders, change” value ([2]; responder ≥5, 5 mg) was 32.4% and the “Responders … odds ratio” value ([2]; responder ≥5, 5 mg) was 1.176. For the same compound, the “Proportion of responders, change” value ([2]; responder ≥5, 10 mg) was 44.9%, the “Responders … odds ratio” value ([2]; responder ≥5, 10 mg) was 1.998 and the “Proportion of responders, change” value ([2]; responder ≥5, 25 mg) was 39.7%. For the same compound, the “Responders … odds ratio” value ([2]; responder ≥5, 25 mg) was 1.619, the “Change from baseline in ADAS-Cog11 total score at Week 12, adjusted mean” value ([3]; 2 mg once daily oral) was −0.02 and the “Change from baseline in ADAS-Cog11 total score at Week 12, comparison vs. placebo, adjusted mean” value ([3]; 2 mg) was 0.05. The “Change from baseline in ADAS-Cog11 total score at Week 12, adjusted mean” value ([3]; 5 mg once daily oral) was 0.23, the “Change from baseline in ADAS-Cog11 total score at Week 12, comparison vs. placebo, adjusted mean” value ([3]; 5 mg) was 0.30 and the “Change from baseline in ADAS-Cog11 total score at Week 12, adjusted mean” value ([3]; 10 mg once daily oral) was 0.69. For the same compound, the “Change from baseline in ADAS-Cog11 total score at Week 12, comparison vs. placebo, adjusted mean” value ([3]; 10 mg) was 0.76, the “Change from baseline in ADAS-Cog11 total score at Week 12, adjusted mean” value ([3]; 25 mg once daily oral) was −0.08 and the “Change from baseline in ADAS-Cog11 total score at Week 12, comparison vs. placebo, adjusted mean” value ([3]; 25 mg) was −0.02. For the same compound, the “Dose-response of change from baseline in ADAS-Cog11 total score at Week 12 (MCPmod, 6 models)” value ([3]; 2 to 25 mg) was “no dose response relation was observed”, the “Secondary and further endpoints: ADCS-ADL, CIBIC+, cognitive composite, COWAT, VFT, Coding, Digit Span Backwards” value ([3]; change from baseline) was “no treatment differences indicative of a benefit were found” and the “Improvement of cognition in patients suffering from Alzheimer's disease” value ([3]; same doses regimen as CIAS) was “ineffective”. For the same compound, the “Increase of CSF glycine at doses efficacious in animal cognition tasks” value (CSF glycine [4]) was “approximately 50%”, the “CSF levels of compound I required for efficacy” value [5] was 1-2 × GlyT1 IC50 and the “Haemoglobin, mean change from baseline at last on-treatment value” (from here on “Haemoglobin, mean change from baseline”) ([6]; 2 mg) was -0.2 g/L. The “Haemoglobin, relative change from baseline” value (shortened to “Haemoglobin, relative change”) ([6]; 2 mg) was −0.1%, the “Haemoglobin, mean change from baseline” value ([6]; 5 mg) was -0.7 g/L and the “Haemoglobin, relative change” value ([6]; 5 mg) was −0.5%. The “Haemoglobin, mean change from baseline” value ([6]; 10 mg) was 3.3 g/L, the “Haemoglobin, relative change” value ([6]; 10 mg) was −2.3% and the “Haemoglobin, mean change from baseline” value ([6]; 25 mg) was 4.5 g/L. The “Haemoglobin, relative change” value ([6]; 25 mg) was −3.2%, the “Headache (most frequently observed AE)” value ([6]; all dose groups vs placebo) was “reported more frequently in all dose groups of compound I than placebo” and the Deaths ([6]; all treatment groups, 12 weeks) was “no deaths”. The “Patients reporting on-treatment AEs” value ([6]; any treatment arm) was “Approximately 50%”, the “Suicidal ideation and behaviour assessed using C-SSRS” value ([6]; compound I vs placebo) was “No significant differences” and the “Worsening of schizophrenia assessed by PANSS total score” value ([6]; in vivo) was “no worsening of schizophrenia”. For the same compound, the “Decrease of haemoglobin levels, maximum effect” value [7] was 5.7%.

From US12059408B2, “Treatment of cognitive impairment associated with schizophrenia” (Boehringer Ingelheim International GmbH, priority 2020, dated 2024)
